Experiments:
[1] = molecular target: T1, Lp-PLA2 (rabbit serum as the source of enzyme) (Oryctolagus cuniculus, UniProt G1SE06); assay: In vitro inhibitory activity on Lp-PLA2, rabbit serum as the source of enzyme (2-thio-PAF/DTNB); format: biochemical; details: read-out: Inhibitory ratio, % on Lp-PLA2 (rabbit serum as the source of enzyme)
T1 construct: Rabbit Serum as the Source of Enzyme; from tissue; host or cells: rabbit serum
T1 sequence (G1SE06 22-423): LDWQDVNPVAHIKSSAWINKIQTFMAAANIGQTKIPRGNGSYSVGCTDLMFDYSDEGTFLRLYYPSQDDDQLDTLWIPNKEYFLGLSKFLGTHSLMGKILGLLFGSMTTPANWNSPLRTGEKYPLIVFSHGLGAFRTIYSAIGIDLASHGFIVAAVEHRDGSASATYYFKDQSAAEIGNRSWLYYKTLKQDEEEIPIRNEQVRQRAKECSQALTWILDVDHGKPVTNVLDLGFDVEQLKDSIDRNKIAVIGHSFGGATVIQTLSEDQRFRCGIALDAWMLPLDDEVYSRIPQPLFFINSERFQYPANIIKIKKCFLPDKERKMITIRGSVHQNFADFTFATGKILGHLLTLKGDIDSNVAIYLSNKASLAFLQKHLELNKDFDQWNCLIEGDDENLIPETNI
Procedure: (§1) 0.1M Tris-HCl, 1 mM EGTA, PH 7.2
(§2) Anhydrous ethanol was used as solvent to make a 25 mg/ml mother liquor. The solution was aliquoted, stored at −80° C. and diluted 900 times before use (about 50 μM of concentration)
(§3) 3) DTNB (5,5′-dithio-bis-(2-nitrobenzoic acid), Sigma, Lot D8130)
(§4) The solution was prepared just before use.
(§5) 4) Compound was dissolved in DMSO to a suitable concentration.
(§6) Lp-PLA2 activity was determined by using 2-thio-PAF as substrate. The thiol group produced upon the hydrolysis of 2-thio-PAF can react with DTNB to generate a yellow substance. The optical density at 414 nm can be detected to reflect Lp-PLA2 activity.
1.1 Determination of the Inhibitory Activity of the Compounds on Lp-PLA2 (Rabbit Serum as the Source of Enzyme) (In Vitro)
1) The corresponding reagents were added according to Table 1 and mixed uniformly by shaking.
(§7) 2) 10 μL of DTNB was added to each well.
(§8) 3) 150 μL of 2-thio-PAF was added to each well and shaken for 15 s on a microplate reader to mix the liquid in the well uniformly.

[2] = molecular target: T2, Lp-PLA2 (human recombinant enzyme as the source of enzyme) (Homo sapiens, UniProt Q13093); assay: In vitro inhibitory activity on Lp-PLA2, human recombinant enzyme (2-thio-PAF/DTNB); format: biochemical; details: read-out: inhibitory ratio, % on Lp-PLA2 (human recombinant enzyme as the source of enzyme)
T2 sequence (Q13093 22-441): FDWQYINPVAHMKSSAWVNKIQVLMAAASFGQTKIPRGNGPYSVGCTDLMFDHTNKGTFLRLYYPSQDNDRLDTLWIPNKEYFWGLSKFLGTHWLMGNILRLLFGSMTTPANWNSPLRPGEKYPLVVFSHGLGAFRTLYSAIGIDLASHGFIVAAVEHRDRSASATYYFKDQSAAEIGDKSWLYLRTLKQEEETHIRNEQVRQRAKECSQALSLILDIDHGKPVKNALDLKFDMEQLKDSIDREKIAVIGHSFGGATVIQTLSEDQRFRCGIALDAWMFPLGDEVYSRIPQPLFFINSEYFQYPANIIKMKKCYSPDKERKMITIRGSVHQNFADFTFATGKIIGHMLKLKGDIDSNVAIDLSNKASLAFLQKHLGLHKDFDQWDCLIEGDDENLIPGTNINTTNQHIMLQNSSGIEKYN
Procedure: as §1, §2, §3, §4, §5, §6
1.2 Determination of the Inhibitory Activity of the Compounds on Lp-PLA2 (Human Recombinant Enzyme as the Source of Enzyme) (In Vitro)
1) The corresponding reagents were added according to Table 3 and mixed uniformly by shaking.
as §7, §8

[3] = system: Lp-PLA2 (rat serum as the source of enzyme); assay: In vitro inhibitory activity on Lp-PLA2, rat serum as the source of enzyme (2-thio-PAF/DTNB); format: biochemical
Procedure: as §1, §2, §3, §4, §5, §6
1.3 Determination of the Inhibitory Activity of the Compounds on Lp-PLA2 (Rat Serum as the Source of Enzyme (In Vitro)
1) The corresponding reagents were added according to Table 5 and mixed uniformly by shaking.
as §7, §8

[4] = In vitro assay of S9 metabolic stability, human S9; format: in vitro ADME; details: for half-life at 0.1 μM: human, S9 fraction, pH 7.4
Procedure: (§9) 3.1.1 The Preparation of Tris/HCl(0.1 M, pH 7.4) Buffer
(§10) 12.12 g of TRIS (tris-hydroxymethyl aminomethane) was weighed, dissolved in 800 mL of water, and adjusted to pH 7.4 with HCl (2 M), and then the volume was adjusted to 1000 mL with water.
(§11) 3.1.2 The preparation of MgCl2
(§12) MgCl2 (100 mM) solution was prepared with 0.1 M Tris/HCl buffer, aliquoted and stored at −20° C. The incubation concentration of MgCl2 was 5.0 mM.
(§13) 3.1.3 The Preparation of NADPH
(§14) NADPH (10 mM) solution was prepared with 0.1 M Tris/HCl buffer, aliquoted and stored at −20° C. The incubation concentration of NADPH was 1.0 mM.
(§15) 3.1.4 The Preparation of S9
(§16) Human S9 (purchased from Reid Liver Disease Research (Shanghai) Co., Ltd.) was diluted 10 times with 0.1 M Tris/HCl and rat S9 (purchased from Reid Liver Disease Research (Shanghai) Co., Ltd.) was diluted 5 times with 0.1 M Tris/HCl, so that the incubation concentrations of human and rat S9 were equivalent to the incubation concentrations of the liver microsomes in the corresponding species (both incubation concentrations of liver microsomes in human and rats are 0.33 mg/mL).
(§17) 3.1.5 The Preparation of the Compounds to be Tested
The compound was dissolved in DMSO to obtain a stock solution at a concentration of 10 mM. The stock solution was diluted to 1 mM with DMSO and then diluted with 0.1% BSA-water to obtain a working solution at a concentration of 2 μM. In the incubation system, the working solution of 2 μM was diluted 20 times to a final concentration of 0.1 μM. The concentration of DMSO in the incubation system was ≤0.01%.
3.1.6 The Preparation of the Positive Control Compound
2 mM VIVID stock solution (purchased from Shanghai Beili Biotechnology Co., Ltd.) was diluted 50 times with the 2 μM working solution for the compounds to be tested. In the incubation system, the mixed working solution of VIVID and the compounds to be tested were diluted 20 times
S9 was incubated in a 96-well plate and each incubation system was 450 μL. […]

[5] = In vitro assay of S9 metabolic stability, rat S9; format: in vitro ADME; details: S9 fraction, pH 7.4; rat S9, NADPH addition, 0.1 μM compound, 37° C.
Procedure: as §9, §10, §11, §12, §13, §14, §15, §16, §17
The compound was dissolved in DMSO to obtain a stock solution at a concentration of 10 mM. The stock solution was diluted to 1 mM with DMSO and then diluted with 0.1% BSA-water to obtain a working solution at a concentration of 2 μM. […]

[6] = system: Lp-PLA2 in serum of SD rats; assay: In vivo inhibition assay of Lp-PLA2 activity in SD rats, single administration; set-up: species or system rat; details: 50 mg/kg oral, serum 1-24 h
Procedure: Each group had 5 SD rats and 50 mg/kg test agents was administrated orally to the rats. […] Blood was collected from the orbits of the rats at 0 h before administration and at 1 h, 3 h, 5 h, 7 h and 24 h after administration and placed at room temperature for 30 minutes before centrifugation. Serum was collected and the Lp-PLA2 activity in serum was measured.

[7] = 10 nM compound, — = no inhibitory activity

| Structure (SMILES) | inhibition at 0.01 µM [1, 7] | inhibition at 0.1 µM ([1]; 100 nM compound) | inhibition at 0.01 µM ([2]; 10 nM compound) | inhibition at 0.1 µM ([2]; 100 nM compound) | inhibitory ratio, % on Lp-PLA2 (rat serum as the source of enzyme) [3, 7] | inhibitory ratio, % on Lp-PLA2 (rat serum as the source of enzyme) ([3]; 100 nM compound) | half-life at 0.1 μM [4] | metabolism stability (in words) ([4]; statement covers human and rat S9) | half-life at 0.1 μM [5] | activity of Lp-PLA2 in serum of the SD rats after a single administration [6] |
| --- | --- | --- | --- | --- | --- | --- | --- | --- | --- | --- |
| Cn1cc(-c2cc(OCc3cc(F)c(Oc4ccc(Cl)c(C(F)(F)F)c4)c(F)c3)nc(=O)n2C)cn1 [Example 21, 4-((4-(4-chloro-3-(trifluoromethyl)phenoxy)-3,5-difluorobenzyl)oxy)-1-methyl-6-(1-methyl-1H-pyrazolyl-4)pyrimidin-2(1H)-one] | 33.2% | 65.4% | 82.8% | 90.1% | 27.65% | 82.48% | > 1 h | superior metabolism stability | 195 h | – |
| COc1cc(OCc2cc(F)c(Oc3ccc(Cl)c(C(F)(F)F)c3)c(F)c2)nc(=O)n1C [Example 65, 4-((4-(4-chloro-3-(trifluoromethyl)phenoxy)-3,5-difluorobenzyl)oxy)-6-methoxy-1-methylpyrimidin-2(1H)-one] | – | – | – | – | – | – | 7.08 h | – | 2.68 h | – |
| COc1cc(OCc2ccc(Oc3ccc(Cl)c(C(F)(F)F)c3)c(F)c2)nc(=O)n1C [Example 66, 4-((4-(4-chloro-3-(trifluoromethyl)phenoxy)-3-fluorobenzyl)oxy)-6-methoxy-1-methylpyrimidin-2(1H)-one] | – | – | – | – | – | – | – | – | – | comparable to darapladib |

Reference: US10280146B2, “Pyrimidone compounds used as Lp-PLA2 inhibitors and pharmaceutical compositions thereof” (Shanghai Institute of Materia Medica, Chinese Academy of …, priority 2014, dated 2019)
